Test results as given in the NIST ThermoML archive (doi:10.1016/j.jct.2015.07.012).
Numbers after ± are expanded uncertainties.

Experiments:
[1] = 101.33 kPa, Liquid; for speed of sound: Sing-around technique in a fixed-path interferometer; for mass density: Vibrating tube method
[2] = refractive index (Na D-line) (dimensionless); conditions: 303.15 K; 101.33 kPa; Liquid; Standard Abbe refractometry
[3] = wn = mass fraction of the nth substance listed; conditions: 298.15 K, 100 kPa, Liquid; for speed of sound: Frequency=3 MHz, Sing-around technique in a fixed-path interferometer; for mass density: Vibrating tube method

Structure (SMILES) | speed of sound ([1]; 293.15 K) [m/s] | mass density ([1]; 293.15 K) [kg/m3] | speed of sound ([1]; 298.15 K) [m/s] | mass density ([1]; 298.15 K) [kg/m3] | speed of sound ([1]; 303.15 K) [m/s] | mass density ([1]; 303.15 K) [kg/m3] | speed of sound ([1]; 308.15 K) [m/s] | mass density ([1]; 308.15 K) [kg/m3] | speed of sound ([1]; 313.15 K) [m/s] | mass density ([1]; 313.15 K) [kg/m3] | speed of sound ([1]; 318.15 K) [m/s] | mass density ([1]; 318.15 K) [kg/m3] | speed of sound ([1]; 323.15 K) [m/s] | mass density ([1]; 323.15 K) [kg/m3] | speed of sound ([1]; 328.15 K) [m/s] | mass density ([1]; 328.15 K) [kg/m3] | speed of sound ([1]; 333.15 K) [m/s] | mass density ([1]; 333.15 K) [kg/m3] | speed of sound ([1]; 338.15 K) [m/s] | mass density ([1]; 338.15 K) [kg/m3] | further results
CCCCCCC(=O)[O-].C[NH2+]C1CCCCC1 [N-methylcyclohexylammonium heptanoate] | 1478.3 ± 8.6 | 945.8 ± 1.9 | 1458.5 ± 8.6 | 942.18 ± 1.8 | 1440.2 ± 8.6 | 938.51 ± 1.8 | 1422.2 ± 8.6 | 934.81 ± 1.8 | 1404.5 ± 8.6 | 931.05 ± 1.8 | 1385.1 ± 8.6 | 927.26 ± 1.8 | 1368.6 ± 8.6 | 923.44 ± 1.8 | 1351.4 ± 8.6 | 919.59 ± 1.8 | 1334.1 ± 8.6 | 915.71 ± 1.8 | 1316.1 ± 8.6 | 911.8 ± 1.8 | speed of sound ([1]; 343.15 K): 1299.1 ± 8.6 m/s; mass density ([1]; 343.15 K): 907.85 ± 1.8 kg/m3; refractive index [2]: 1.4636 ± 0.0012
CCCCCC(=O)[O-].C[NH2+]C1CCCCC1 [N-methylcyclohexylammonium hexanoate] | 1484 ± 8.6 | 955.14 ± 1.9 | 1464.9 ± 8.6 | 951.65 ± 1.9 | 1446.4 ± 8.6 | 948.13 ± 1.9 | 1428.2 ± 8.6 | 944.56 ± 1.9 | 1410.3 ± 8.6 | 940.96 ± 1.8 | 1392.6 ± 8.6 | 937.32 ± 1.8 | 1375 ± 8.6 | 933.66 ± 1.8 | 1357.5 ± 8.6 | 929.96 ± 1.8 | 1340 ± 8.6 | 926.23 ± 1.8 | 1322.6 ± 8.6 | 922.46 ± 1.8 | speed of sound ([1]; 343.15 K): 1305.2 ± 8.6 m/s; mass density ([1]; 343.15 K): 918.66 ± 1.8 kg/m3; refractive index [2]: 1.4631 ± 0.0012
CCCCCCCC(=O)[O-].C[NH2+]C1CCCCC1 [N-methylcyclohexylammonium octanoate] | 1471.6 ± 8.6 | 938.59 ± 1.8 | 1453.1 ± 8.6 | 935.17 ± 1.8 | 1435 ± 8.6 | 931.73 ± 1.8 | 1417.2 ± 8.6 | 928.25 ± 1.8 | 1399.5 ± 8.6 | 924.74 ± 1.8 | 1381 ± 8.6 | 921.21 ± 1.8 | 1363.7 ± 8.6 | 917.65 ± 1.8 | 1346.5 ± 8.6 | 914.07 ± 1.8 | 1329.4 ± 8.6 | 910.46 ± 1.8 | 1312.4 ± 8.6 | 906.82 ± 1.8 | speed of sound ([1]; 343.15 K): 1295.4 ± 8.6 m/s; mass density ([1]; 343.15 K): 903.15 ± 1.8 kg/m3; refractive index [2]: 1.464 ± 0.0012
CCCCCCCC(=O)[O-].C[NH2+]C1CCCCC1 [N-methylcyclohexylammonium octanoate] + O |  |  |  |  |  |  |  |  |  |  |  |  |  |  |  |  |  |  |  |  | speed of sound ([3]; w2 = 0.002193): 1453.1 ± 8.6 m/s; speed of sound ([3]; w2 = 0.004032): 1457.6 ± 8.6 m/s; speed of sound ([3]; w2 = 0.005228): 1459.7 ± 8.6 m/s; speed of sound ([3]; w2 = 0.007628): 1462.3 ± 8.6 m/s; speed of sound ([3]; w2 = 0.009495): 1463.2 ± 8.6 m/s; mass density ([3]; w2 = 0.002193): 935.17 ± 1.8 kg/m3; mass density ([3]; w2 = 0.004032): 935.76 ± 1.8 kg/m3; mass density ([3]; w2 = 0.005228): 936.14 ± 1.8 kg/m3; mass density ([3]; w2 = 0.007628): 937.01 ± 1.8 kg/m3; mass density ([3]; w2 = 0.009495): 937.53 ± 1.8 kg/m3
CCCCC(=O)[O-].C[NH2+]C1CCCCC1 [N-methylcyclohexylammonium pentanoate] | 1495.3 ± 8.6 | 965.76 ± 1.9 | 1475.7 ± 8.6 | 962.21 ± 1.9 | 1456.7 ± 8.6 | 958.63 ± 1.9 | 1438.2 ± 8.6 | 955.01 ± 1.9 | 1420.1 ± 8.6 | 951.34 ± 1.9 | 1402.1 ± 8.6 | 947.63 ± 1.9 | 1384.2 ± 8.6 | 943.88 ± 1.9 | 1366.5 ± 8.6 | 940.1 ± 1.8 | 1348.8 ± 8.6 | 936.29 ± 1.8 | 1331.1 ± 8.6 | 932.44 ± 1.8 | speed of sound ([1]; 343.15 K): 1313.5 ± 8.6 m/s; mass density ([1]; 343.15 K): 928.54 ± 1.8 kg/m3; refractive index [2]: 1.4627 ± 0.0012
